Assay results taken from patent EP0233686A2, “Bis phenyl ethanol amines and bis phenyoxypropanolamines having a beta-agonist activity” (BEECHAM GROUP PLC, priority 1986, dated 1987).
Counter-ions that a name gives are not always drawn.

Tested on: Female CFLP mice
Test: Hypoglycaemic activity: oral compound, then subcutaneous glucose load in fasted mice; area under the blood glucose curve over 2 hours compared with water controls
Assay type: in vivo
Settings: Mus musculus, mice fasted for 24 hours, glucose 1g/kg s.c. 30 minutes after dosing, 2 hour AUC vs water controls, read-out: % reduction in area under blood glucose curve; for inhibition in vivo at 3 µmol/kg: dose 3 µmol/Kg p.o.
Description: Female CFLP mice, weighing approximately 25g, were fasted for 24 hours prior to the study. The compounds under study were administered orally as an aqueous solution to each of 6 mice. 30 minutes later a blood sample (20ul) was obtained from the tail for the analysis of blood glucose. Immediately after taking this blood sample, glucose (lg/kg body weight) was administered subcutaneously to each mouse. 6 mice were -given water as a control. Blood samples were then obtained from each mouse at 30 minute intervals for 120 minutes. Compounds that produced a significant (p>0.05) reduction of blood glucose, compared with control mice given water, at any time interval were considered active. The area under the blood glucose curve over the 2 hour period after the administration of the glucose was calculated for each compound and compared with the value for control animals.

C[C@H](Cc1ccc(OCC(=O)NCCNC(=O)COc2ccc(C[C@@H](C)NC[C@H](O)c3cccc(Cl)c3)cc2)cc1)NC[C@H](O)c1cccc(Cl)c1 [Example 1, [R,R,R,R]-N,N'-(1,2-Ethanediyl)bis[2-[4-[2-[(2-(3-chlorophenyl)-2-hydroxyethyl)amino]propyl]phenoxy]acetamide]]
inhibition in vivo at 12.5 µmol/kg (dose 12.5 µmol/Kg p.o.): 43%

C[C@H](Cc1ccc(OCCCCCCOc2ccc(C[C@@H](C)NC[C@H](O)c3cccc(Cl)c3)cc2)cc1)NC[C@H](O)c1cccc(Cl)c1 [Example 3, [R,R,R,R]-α,α'[1,6-Hexanediylbis[oxy-4,1-phenylene(1-methyl-2,1-ethanediyl)iminomethylene]]bis[3-chlorobenzenemethanol], dihydrochloride]
inhibition in vivo at 1 µmol/kg (dose 1.0 µmol/Kg p.o.): 55%

C[C@H](Cc1ccc(S(=O)(=O)c2ccc(C[C@@H](C)NC[C@H](O)c3cccc(Cl)c3)cc2)cc1)NC[C@H](O)c1cccc(Cl)c1 [Example 6, [R,R,R,R]-α,α'-[Sulphonylbis[4,1-phenylene(1-methyl-2,1-ethanediyl)iminomethylene]]bis|3-chlorobenzenemethanol] dihydrochloride]
inhibition in vivo at 3 µmol/kg: 30%

C[C@H](Cc1ccc(C(O)(CO)c2ccc(C[C@@H](C)NC[C@H](O)c3cccc(Cl)c3)cc2)cc1)NC[C@H](O)c1cccc(Cl)c1 [Example 7, [R,R,R,R]-1,1-di[4-[2-[[2-(3-chlorophenyl)-2-hydroxyethyl]amino]propyl]phenyl]-1,2-ethanediol, dihydrochloride]
inhibition in vivo at 2.5 µmol/kg (dose 2.5 µmol/Kg p.o.): 17%

C[C@H](Cc1ccc(OCCCCCCCCCOc2ccc(C[C@@H](C)NC[C@H](O)c3cccc(Cl)c3)cc2)cc1)NC[C@H](O)c1cccc(Cl)c1 [Example 13, [R,R,R,R,]-α,α'[1,9-Nonanediylbis[oxy-4,1-phenylene (1-methyl-2,1-ethanediyl)iminomethylene]]bis[3-chlorobenzenemethanol], dihydrochloride]
inhibition in vivo at 3 µmol/kg: 34%

C[C@H](Cc1ccc(CNCCCCNCc2ccc(C[C@@H](C)NC[C@H](O)c3cccc(Cl)c3)cc2)cc1)NC[C@H](O)c1cccc(Cl)c1 [Example 16, [R,R,R,R]-α,α'-[1,4-Butanediylbis[iminomethylene-4,1-phenylene(1-methyl-2,1-ethanediyl)iminomethylene]]bis [3-chlorobenzenemethanol, tetrahydrochloride]
inhibition in vivo at 3 µmol/kg: 8%

C[C@H](Cc1ccc(CCCCCCc2ccc(C[C@@H](C)NC[C@H](O)c3cccc(Cl)c3)cc2)cc1)NC[C@H](O)c1cccc(Cl)c1 [Example 19, [R,R,R,R]-α,α'-[1,6-Hexanediylbis[4,1-phenylene (1-methyl-2,1-ethanediyl)iminomethylene]] bis[3-chlorobenzenemethanol], dihydrochloride]
inhibition in vivo at 10 µmol/kg (dose 10 µmol/Kg p.o.): 11%

C[C@H](Cc1ccc(OCCCCCOc2ccc(C[C@@H](C)NC[C@H](O)c3cccc(Cl)c3)cc2)cc1)NC[C@H](O)c1cccc(Cl)c1 [Example 20, [R,R,R,R]-α,α'-[1,5-Pentanediylbis[oxy-4,1-phenylene (1-methyl-2,1-ethanediyl)iminomethylene]] bis[3-chlorobenzenemethanol], dihydrochloride]
inhibition in vivo at 0.1 µmol/kg (dose 0.1 µmol/Kg p.o.): 51%
